From US7013836B1, “Enhancing maturation of oocytes in bivalves” (Board of Supervisors of Louisiana State University and …, priority 2002, dated 2006)
Read-outs that look alike come from different tables or passages of the source. *1 amine or outer side, *2 acyl side, *3 side chain or, on linkers, in order; H or OH if unused. Where a SMILES comes first, the peptide text is derived from it. Bridges are numbered along the chain shown (N, C = ends). Roman numbers before positions name the chains, in order. [ ]: non-standard residue; d: D form. Actinocin(9to1) = Cc1c2oc3c(C)ccc(C(=O)[*:1])c3nc-2c(C(=O)[*:2])c(N)c1=O; NMeV = CN[C@H](C(=O)O)C(C)C; Sar = CNCC(=O)O

Tests used:
oysters = test: Presence of prominent genital canals 14 days after estradiol-17β injection; format: in vivo, Crassostrea virginica; settings: after 14 days, May
Description: In another experiment, conducted in May in Grand Isle, La., animals were injected either with 0 (control), 37.5 ng/g, or 74 ng/g of estradiol-17β. After 14 days, animals were evaluated using the traditional methodology of assaying the presence of prominent genital canals, indicative of mature animals that are ready to spawn. These animals were not subjected to serotonin treatment, but rather were sacrificed for histological examination to establish a somatic-gonadal ratio index. […] Data analysis was performed using GraphPad InStat software. The data reported in Table 2 are conservative, in the following sense: During the trial period, the water temperature decreased from 23° C. to 18° C., and then increased to 22° C., all within a thirty-six hour period. Such a temperature change is alone often sufficient to trigger spawning in the wild.

[1] = test system: triploid C. virginica oysters; test: Triploid oysters: sex, gonadal condition and oocyte yield by stripping after estradiol injection; format: in vivo, Crassostrea virginica; settings: 150 ng/gm wet weight
Description: In trials with 261 triploid C. virginica oysters that began on May 31 in Grand Isle, La., the oysters were notched and were then injected with 150 ng/gm wet weight estradiol 17β. Ten days later, the animals were sacrificed, and their sex and gonadal condition were determined. Of the 261 animals tested, 13 were confirmed female triploids. These 13 triploid females yielded a total of 6 million oocytes by traditional stripping techniques, which is not a high yield in comparison to diploid animals, but was high compared to untreated triploids.
For comparison, on May 6 of the following year, 165 animals selected from the same original cohort of triploid oysters were sacrificed without the estradiol treatment. […] While these observations were made one year apart, both sets of observations involved triploid animals sharing the same diploid parents. The estradiol-treated group was 2 years old at the time of observation, while the untreated group one year later was 3 years old. […] However, in support of the effectiveness of the treatment, it may be noted that the three-year-old, untreated animals were sacrificed at a time when the population of mature and spawning diploid animals in the same location was at its peak, whereas the two-year-old, estradiol-treated animals were examined when the number of mature and spawning diploids was in decline.

C. virginica = test: Spawning response of estradiol-17β-injected oysters to serotonin stimulus after normal spawning season; format: in vivo, Crassostrea virginica
Description: A series of initial experiments assayed the response of C. virginica to low doses of estradiol-17β. These trials were undertaken in August and September, at the end of the normal maturation and spawning season of this species on the Gulf coast. Experiments typically ran for two weeks following the injection of a single dose of estradiol-17β into the […] muscle. (Injections were made through a small hole drilled in the shell.) The estradiol dosage for each animal was calculated based on wet body tissue mass of the whole animal, as estimated from its shell length. (These estimates were based on linear regression from measurements of shell lengths and wet body mass from 62 mixed-sex oysters that had been harvested in July). […] (The normal physiological level is 1.5 ng per gram wet weight. So a 5× dosage is 7.5 ng per gram wet weight, […]) Responses to the estradiol treatment were based on visual assessment of gonadal condition, on the response of the excised whole animal to a solution of 0.01 mM 5-hydroxytryptamine during a 45 min treatment period, and on histological examination of samples of the oyster taken through the body mass containing the gonadal region.
The three trials summarized in Table 1 were analyzed using a yes/no non-parametric chi-squared analysis.

Japanese scallop = settings: in vivo; cited from earlier work
[2] = test system: pieces of ovary from the scallop; settings: cited from earlier work
[3] = test system: zebra mussels (Dreissena polymorpha); settings: cited from earlier work
[4] = test system: scallop Patinopecten yessoensis; settings: intragonadal injection; cited from earlier work
C. gigas = settings: cited from earlier work
[5] = test system: ovarian pieces of the scallop; settings: isolated ovarian pieces in vitro; cited from earlier work
[6] = Aug. 18, injection 75 ng per gram wet weight
[7] = Sep. 15, injection 7.5 ng per gram wet weight
[8] = Sep. 22, injection 15 ng per gram wet weight

Compound: C[C@]12CC[C@@H]3c4ccc(O)cc4CC[C@H]3[C@@H]1CC[C@@H]2O [estradiol-17β]
- number with prominent genital canals (oysters; dose 1 group, 37.5 ng/g): 11
- number without prominent genital canals (oysters; dose 1 group, 37.5 ng/g): 38
- percent with prominent genital canals (oysters; dose 1 group, 37.5 ng/g): 22%
- percent without prominent genital canals (oysters; dose 1 group, 37.5 ng/g): 78%
- number with prominent genital canals (oysters; dose 2 group, 74 ng/g): 18
- number without prominent genital canals (oysters; dose 2 group, 74 ng/g): 35
- percent with prominent genital canals (oysters; dose 2 group, 74 ng/g): 34%
- percent without prominent genital canals (oysters; dose 2 group, 74 ng/g): 66%
- total oocytes yielded by traditional stripping ([1]; 13 triploid females, ten days after injection): 6 million oocytes
- confirmed female triploids among animals tested ([1]; of 261 triploid oysters, untreated cohort of 165 had none): 13
- Animals not responding to 5-hydroxytryptophan stimulus - % (C. virginica; [6]): 42%
- Animals not responding to 5-hydroxytryptophan stimulus - no. (C. virginica; [6]): 6
- Animals responding to 5-hydroxytryptophan stimulus - % (C. virginica; [6]): 58%
- Animals responding to 5-hydroxytryptophan stimulus - no. (C. virginica; [6]): 8
- Animals not responding to 5-hydroxytryptophan stimulus - % (C. virginica; [7]): 60%
- Animals not responding to 5-hydroxytryptophan stimulus - no. (C. virginica; [7]): 12
- Animals responding to 5-hydroxytryptophan stimulus - % (C. virginica; [7]): 40%
- Animals responding to 5-hydroxytryptophan stimulus - no. (C. virginica; [7]): 8
- Animals not responding to 5-hydroxytryptophan stimulus - % (C. virginica; [8]): 65%
- Animals not responding to 5-hydroxytryptophan stimulus - no. (C. virginica; [8]): 21
- Animals responding to 5-hydroxytryptophan stimulus - % (C. virginica; [8]): 35%
- Animals responding to 5-hydroxytryptophan stimulus - no. (C. virginica; [8]): 11

Compound: C[C@]12C[C@H]3S[C@H]3C[C@@H]1CC[C@@H]1[C@@H]2CC[C@]2(C)[C@@H](O)CC[C@@H]12 [epitostanol]
- increase of PGE2 and PGF2α in the ovary (Japanese scallop): inhibit the increase of PGE2 and PGF2α

Compound: COc1ccc2c(c1)c(CC(=O)O)c(C)n2C(=O)c1ccc(Cl)cc1 [indomethacin]
- effect on serotonin-induced egg release ([2]; PGE2 also present): did not inhibit serotonin-induced egg release

Compound: NCCc1c[nH]c2ccc(O)cc12 [serotonin, 5-hydroxytryptamine]
- induction of spawning [3]: induce both oocyte meiotic maturation and spawning
- release of eggs ([2]; pieces of ovary in vitro): the number of released eggs increased significantly
- spawning [4]: stimulated spawning in both sexes

Compound: CCCCC[C@H](O)/C=C/[C@H]1[C@H](O)CC(=O)[C@@H]1C/C=C\CCCC(=O)O [PGE2, prostaglandin E2]
- effect on serotonin-induced egg release ([2]; pieces of ovary in vitro): enhanced the effect of serotonin
- release of eggs ([2]; pieces of ovary in vitro): did not induce egg release

Compound: COCCCC/C(=N\OCCN)c1ccc(C(F)(F)F)cc1 [fluvoxamine]
- induction of spawning [3]: can induce spawning in both sexes

Compound: C[C@]12CC[C@@H]3c4ccc(OC(=O)c5ccccc5)cc4CC[C@H]3[C@@H]1CC[C@@H]2O [estradiol-3-benzoate]
- response time following injection (C. gigas): about 50 days
- gonadal-somatic index ratio (C. gigas; high dose injected into the gonad): promoted an increase in the gonadal-somatic index ratio

Compound: CNCCC(Oc1ccc(C(F)(F)F)cc1)c1ccccc1 (stereo not drawn) [fluoxetine]
- induction of spawning [3]: can induce spawning in both sexes

Compound: CC(=O)Oc1ccccc1C(=O)O [aspirin]
- effect on serotonin-induced egg release ([2]; PGE2 also present): did not inhibit serotonin-induced egg release
- effect on the accelerating effect of estradiol-17β pre-incubation [5]: inhibited

Compound: Fc1ccc([C@@H]2CCNC[C@H]2COc2ccc3c(c2)OCO3)cc1 [paroxetine]
- induction of spawning [3]: can induce spawning in both sexes

Compound: Cc1c2oc3c(C)ccc(C(=O)N[C@@H]4C(=O)N[C@H](C(C)C)C(=O)N5CCC[C@H]5C(=O)N(C)CC(=O)N(C)[C@@H](C(C)C)C(=O)O[C@@H]4C)c3nc-2c(C(=O)N[C@@H]2C(=O)N[C@H](C(C)C)C(=O)N3CCC[C@H]3C(=O)N(C)CC(=O)N(C)[C@@H](C(C)C)C(=O)O[C@@H]2C)c(N)c1=O [actinomycin D] (I: T[dV]P[Sar][NMeV] / II: T[dV]P[Sar][NMeV]; ester I:1-I:C, II:1-II:C; linker I:N-II:N via Actinocin(9to1))
- effect on the accelerating effect of estradiol-17β pre-incubation [5]: inhibited

Compound: prostaglandin F2α [PGF2α]
- effect on serotonin-induced egg release ([2]; pieces of ovary in vitro): significantly inhibited the effect of serotonin

Compound: CC[C@@H](CO)NC(=O)[C@@H]1C=C2c3cccc4c3c(cn4C)C[C@H]2N(C)C1 [Methysergide]
- release of eggs ([2]; pieces of ovary in vitro): inhibited the release of eggs
